The values below come from paper PMC5462828 (Scientific Reports, 2017).

Experiment [1] concerns the target RXFP1 stably expressed in HEK293 cells (HEK-RXFP1) (human) (UniProt Q9HBX9). The experiment is described as follows: radioligand binding; kinetics on HEK-RXFP1 cells in 96-well plates, without ML290: association with 100 pM 125I-H2 relaxin over time; dissociation after 90 min equilibration, started with 200 nM unlabelled H2 relaxin.
Experiment [2] has the same target. The experiment is described as follows: radioligand binding; kinetics on HEK-RXFP1 cells in 96-well plates, with ML290 (1 μM): association with 100 pM 125I-H2 relaxin over time; dissociation after 90 min equilibration, started with 200 nM unlabelled H2 relaxin.
Experiment [3] has as its system ML290-mediated cAMP accumulation. Briefly: Effect of signalling pathway inhibitors on ML290-mediated cAMP accumulation in human primary vascular cells. The experiment is classed as cell-based. The note with it: NF449 10 μM, NF023 10 μM, mSIRK 5 μM, gallein 50 μM, Wortmannin 100 nM, 30 min. The protocol: (§1) cAMP and cGMP accumulation was determined as previously described, [16]. Briefly, HEK293 cells were plated in 96-well plates (5 × 10^4 cells/well) and human primary cells were plated into 24-well plates (1 × 10^5 cells/well) and grown overnight to achieve a confluent monolayer. Prior to stimulation, HEK cells were serum-starved in DMEM containing 0.5% FBS v/v and primary cells were serum-starved in M199 medium for 4–6 hours. […] Levels of cAMP and cGMP were detected according to the manufacturer’s instructions (Perkin-Elmer, Australia).

The test system of experiment [4] is ML290-mediated cGMP accumulation. The experiment is described as follows: Effect of signalling pathway inhibitors on ML290-mediated cGMP accumulation in human primary vascular cells. The experiment is classed as cell-based. Particulars: NF449 10 μM, NF023 10 μM, mSIRK 5 μM, gallein 50 μM, Wortmannin 100 nM, 30 min. The protocol: as §1
In experiment [5] the test system is p-Smad2. The experiment is described as follows: Smad2 phosphorylation assay in human cardiac fibroblasts. It counts as cell-based. Particulars: HCFs; TGF-β1 2 ng/ml alone; 72 hours. As to the method:
(§2) Cells were serum-starved in M199 medium for 24 hours prior sample collection. Cells were used between passages 1–4, while all experiments were performed four separate times in duplicate. Levels of p-Smad2 and p-Smad3 were detected using Sure-fire kits according to the manufacturer’s instructions (Perkin-Elmer, Australia).

The test system of experiment [6] is p-Smad3. The experiment is described as follows: Smad3 phosphorylation assay in human cardiac fibroblasts. It counts as cell-based. The note with it: HCFs; TGF-β1 2 ng/ml alone; 72 hours. The protocol:
as §2

Experiment [7] deals with T1, RXFP1 stably expressed in HEK293 cells (HEK-RXFP1) (human, UniProt Q9HBX9 1-757).
T1 sequence (looked up): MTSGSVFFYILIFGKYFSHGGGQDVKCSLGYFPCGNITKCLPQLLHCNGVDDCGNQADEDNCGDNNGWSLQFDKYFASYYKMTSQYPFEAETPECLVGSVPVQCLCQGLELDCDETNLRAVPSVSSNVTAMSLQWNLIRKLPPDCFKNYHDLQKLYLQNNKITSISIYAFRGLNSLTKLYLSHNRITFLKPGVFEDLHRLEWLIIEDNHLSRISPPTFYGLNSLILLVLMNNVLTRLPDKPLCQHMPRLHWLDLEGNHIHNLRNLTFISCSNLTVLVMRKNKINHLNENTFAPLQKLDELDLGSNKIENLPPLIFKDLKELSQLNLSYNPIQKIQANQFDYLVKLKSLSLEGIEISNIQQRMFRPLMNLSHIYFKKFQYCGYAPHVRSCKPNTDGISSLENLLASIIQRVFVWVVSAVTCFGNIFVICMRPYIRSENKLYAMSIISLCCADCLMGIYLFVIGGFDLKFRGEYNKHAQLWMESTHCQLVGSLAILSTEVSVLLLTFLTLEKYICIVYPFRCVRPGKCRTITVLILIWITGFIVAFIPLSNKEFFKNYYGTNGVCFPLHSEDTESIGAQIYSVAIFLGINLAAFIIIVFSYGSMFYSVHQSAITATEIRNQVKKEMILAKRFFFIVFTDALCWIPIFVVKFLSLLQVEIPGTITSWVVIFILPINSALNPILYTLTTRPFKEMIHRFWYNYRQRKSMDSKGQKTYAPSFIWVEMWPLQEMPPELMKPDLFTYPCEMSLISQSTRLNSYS
Briefly: cell-based or functional assay.

Experiment [8] has as its target T1, RXFP1 stably expressed in HEK293 cells …. Briefly: radioligand binding; competition on HEK-RXFP1 cells: 100 pM 125I-H2 relaxin against increasing unlabelled H2 relaxin, vehicle (0.1% DMSO), 90 min, room temperature. Particulars: one partner purified.
Experiment [9] has the same target. The experiment is described as follows: radioligand binding; competition on HEK-RXFP1 cells: 100 pM 125I-H2 relaxin against increasing unlabelled H2 relaxin, in the presence of ML290 (1 μM), 90 min, room temperature. Particulars: one partner purified.

A word on the koff: it is the rate constant with which the complex falls apart. A low value points to slow dissociation. What is called kon is the rate constant with which the complex forms. Usually pKi stands for −log10 of the Ki, conventionally taken in molar units.

Consider 125I-H2 relaxin (ligand), for which, in [1], the koff is 0.000833 s⁻¹ and the kon came to 3.5e+06 M⁻¹ s⁻¹. Moreover, in experiment [2], the koff amounted to 0.000667 s⁻¹ and the kon was 4.67e+06 M⁻¹ s⁻¹.

Consider `O=C(Nc1cccc(C(=O)Nc2ccc(S(=O)(=O)O)c3cc(S(=O)(=O)O)cc(S(=O)(=O)O)c23)c1)Nc1cccc(C(=O)Nc2ccc(S(=O)(=O)O)c3cc(S(=O)(=O)O)cc(S(=O)(=O)O)c23)c1` [NF023], for which the “ML290-mediated cAMP accumulation after inhibitor” value in [3] (HCAECs) is given as “unaffected”; in experiment [3] (HUASMCs, L9A 5 μM) it was “no effect”; in experiment [3] (HUVECs), “unaffected”; in [3] (HUVSMCs, L9A 5 μM) it was “no effect”. Moreover, the “ML290-mediated cGMP accumulation after inhibitor” value in [4] (HCAECs) was “not significantly affected”; in [4] (HUASMCs, L9A 5 μM), “no effect”; in experiment [4] (HUVECs), “not significantly affected”; in experiment [4] (HUVSMCs, L9A 5 μM), “no effect”.

For the molecule `O=C(Nc1cc(C(=O)Nc2ccc(S(=O)(=O)O)cc2S(=O)(=O)O)cc(C(=O)Nc2ccc(S(=O)(=O)O)cc2S(=O)(=O)O)c1)Nc1cc(C(=O)Nc2ccc(S(=O)(=O)O)cc2S(=O)(=O)O)cc(C(=O)Nc2ccc(S(=O)(=O)O)cc2S(=O)(=O)O)c1` [NF449], the “ML290-mediated cAMP accumulation after inhibitor” value in experiment [3] (HCAECs) is 0.8 ± 3.9 % response to 50 μM forskolin; in experiment [3] (HUASMCs, L9A 5 μM) it was 6.0 ± 7.3 % response to 50 μM forskolin; in experiment [3] (HUVECs), 0.8 ± 5.7 % response to 50 μM forskolin; in [3] (HUVSMCs, L9A 5 μM), 4.7 ± 2.5 % response to 50 μM forskolin. For the same molecule, the “ML290-mediated cGMP accumulation after inhibitor” value in [4] (HCAECs) was 11.9 ± 5.3 % of the response to DEA; in [4] (HUASMCs, L9A 5 μM), 24.3 ± 5.7%; in [4] (HUVECs), 22.3 ± 3.0 % of the response to DEA; in experiment [4] (HUVSMCs, L9A 5 μM) it was 18.8 ± 3.7%.

In the case of `COC[C@H]1OC(=O)c2coc3c2[C@@]1(C)C1=C(C3=O)[C@@H]2CCC(=O)[C@@]2(C)C[C@H]1OC(C)=O` [Wortmannin], the “ML290-mediated cAMP accumulation after inhibitor” value was “unaffected” in experiment [3] (HCAECs); 7.2 ± 2.2 % response to 50 μM forskolin in [3] (HUASMCs, L9A 5 μM); “unaffected” in experiment [3] (HUVECs); 6.4 ± 2.2 % response to 50 μM forskolin in experiment [3] (HUVSMCs, L9A 5 μM). Besides, the “ML290-mediated cGMP accumulation after inhibitor” value in experiment [4] (HCAECs) was “not significantly affected”; in [4] (HUASMCs, L9A 5 μM), 21.8 ± 3.4%; in experiment [4] (HUVECs) it was “not significantly affected”; in experiment [4] (HUVSMCs, L9A 5 μM), 14.3 ± 3.3%.

Regarding `O=C1OC2(c3ccccc31)c1ccc(O)c(O)c1Oc1c2ccc(O)c1O` [gallein], the “ML290-mediated cAMP accumulation after inhibitor” value in experiment [3] (HCAECs) is “unaffected”; in experiment [3] (HUASMCs, L9A 5 μM) it was 5.2 ± 1.4 % response to 50 μM forskolin; in experiment [3] (HUVECs), “unaffected”; in [3] (HUVSMCs, L9A 5 μM), 3.2 ± 3.4 % response to 50 μM forskolin. Also, the “ML290-mediated cGMP accumulation after inhibitor” value is “not significantly affected” in experiment [4] (HCAECs); 15.6 ± 2.6% in experiment [4] (HUASMCs, L9A 5 μM); “not significantly affected” in experiment [4] (HUVECs); 14.3 ± 3.8% in [4] (HUVSMCs, L9A 5 μM).

“TGF-β1: pro-fibrotic cytokine used to induce Smad2 and Smad3 phosphorylation”: the “increase in p-Smad2 compared to vehicle-treated samples” value in experiment [5] stood at 2.21 ± 0.17 fold. Besides, the “increase in p-Smad3 compared to vehicle-treated samples” value in experiment [6] is 1.41 ± 0.07 fold.

B1: Human gene 2 relaxin (H2 relaxin) (ligand)
chain 1: QLYSALANKCCHVGCTKRSLARFC
chain 2: DSWMEEVIKLCGRELVRAQIAICGMSTWS
As to B1, in [7], the “cAMP accumulation in HCAEC (endogenous RXFP1), pEC50 (efficacy in brackets as % of forskolin 50 μM)” value is 8.9; the “cGMP accumulation in HCAEC (endogenous RXFP1), pEC50 (efficacy in brackets as % of DEA)” value worked out at 9.2; the “cGMP accumulation in HCF (endogenous RXFP1), 40 min, pEC50 (efficacy in brackets as % of DEA)” value was determined as 9.6; the “p-ERK1/2 in HEK-RXFP1 cells, 5 min, pEC50 (efficacy in brackets as % of 10% FBS)” value was found to be 9.5. For the same molecule, the “p-p38MAPK in HEK-RXFP1 cells, 15 min, pEC50 (efficacy in brackets as % of sorbitol)” value in experiment [7] was 8.9. The molecule also displayed a pKi in [8] of 9.5. Further, in experiment [9], the pKi came to 9.7.
